Laboratory results reported in US8716260B2, “Use of S-adenosylmethionine, vitamin E, and vitamin C for the treatment of oxidative liver injury” (University of Manitoba, priority 2005, dated 2014).

Columns and labels:
Format in all cases: in vivo, rat
Male Sprague-Dawley rats [1] = test: Hepatic enzymes analysis (serum ALT and AST); conditions: TAA rats; effect on TAA-induced increases
Protocol: Animal groups. Six groups of animals were established under the following treatments: (1): Normal control rats, treated with saline and corn oil injection at the dose of 2 and 1 ml.kg-1, respectively, n=12. (2): Normal rats, treated with Vitamin C, Vitamin E and SAMe, n=8. The dose for Vitamin C and Vitamin E were 100 and 200 mg.kg-1, respectively; for SAMe was 25 mg.kg-1. (3): Thioacetaminde (TAA) rats, given with intraperitoneal injection of TAA at the dose of 200 mg.kg-1, n=9. (4): TAA rats treated with Vitamin C+Vitamin E, n=11. (5): TAA rats with SAMe treatment, n=7. (6): TAA rats treated with Vitamin C+Vitamin E+SAMe, n=8. All compounds were administered by intraperitoneal injection (i. p.). […]
Protocol. […] Following the establishment of glucose baseline, the first RIST index was determined and this was regarded as the control RIST. […] The percentage contribution of HISS-dependent component to total insulin sensitivity was calculated as: % HISS=(RIST index in control−RIST index after atropine)/RIST index in control. […]
Hepatic enzymes analysis. Serum samples from rats in groups 1 to 6 were analyzed for alanine aminotransferase (ALT) and aspartate aminotransferase (AST) activities spectrophotometrically utilizing an Abbott analyzer and Diagnostic Chemicals Limited assay reagents (Charlottetown, P.E.I, Canada).

Male Sprague-Dawley rats [2] = test: Rapid Insulin Sensitivity Test (RIST); conditions: for RIST index: TAA rats (TAA 200 mg.kg-1 i.p. 24 h before), control RIST, treatments i.p. 1 h post TAA; for RIST index post atropine: TAA rats, second RIST after atropine 0.1 mg.kg-1 i.v. (HISS-independent component)
Protocol: Surgical Preparation. Male Sprague-Dawley rats weighing 260-300 g from the University of Manitoba colony were maintained in the animal house under controlled conditions (22±1° C., 12 h light/12 h dark cycle). They were fed a standard rat chow diet with free access to water. All rats underwent a fasting period of 8 h and a refeeding phase of 2 h immediately before the start of surgical preparation. As HISS is only released in the fed state, the fasting-refeeding protocol assured a high level of HISS release in response to insulin. The rats were anaesthetized with an intraperitoneal injection of sodium pentobarbital (65 mg kg-1; Somnotol, MTC Pharmaceuticals, Ont). Maintained anesthesia was achieved throughout the experiment by a continuous infusion of pentobarbital sodium (0.5 mg.ml-1 saline given at 50 μl.min-1) through a cannula in the jugular vein, supplemented with a 0.65 mg (0.01 ml) bolus injection when required. The rats were placed on a temperature-controlled surgical table (Harvard Apparatus, Kent, England) and rectal temperature was monitored and held at 37-37.5° C. Spontaneous respiration was allowed through a tracheal tube.
An arterial-venous shunt was established, as previous described (Lautt W W et al. Can J Physiol Pharmacol. 1998; 76(12): 1080-6.), for monitoring mean arterial blood pressure (MAP), blood glucose level and for drug delivery. Briefly, two catheters (polyethylene tubing PE60), one inserted into the right femoral artery and the other into the right femoral vein, were connected to the two openings of a three way vascular circuit consisting of a T tube connected with silicon tubing. The third opening of the circuit was connected to a pressure transducer for the recording of the shunt pressure which, when the silicon tubing toward the venous side of the circuit was closed by clamping, represented the systemic arterial blood pressure. Blood samples were taken from the arterial side of the shunt for the glucose measurement. Flowing blood within the shunt assures the real time measurement of the blood glucose concentration, which is essential for the euglycemic clamp test as mentioned below. An infusion line was inserted into the venous side of the loop for drug delivery. Another infusion line connected to the jugular vein was established for glucose infusion. Animals were heparinized (100 IU.kg-1) to prevent clotting in the vascular loop.
Rapid Insulin Sensitivity Test (RIST). The RIST was performed as previously described (Lautt W W et al. Can J Physiol Pharmacol. 1998; 76(12): 1080-6.). Briefly, following completion of surgery, animals were allowed a 30-min stabilization period. The baseline glucose levels were then determined by samples taken at 5-min intervals and continued until three successive stable determinations were made. The mean of these three data points is regarded as the baseline for the RIST. To perform the RIST, human insulin (50mU.kg-1 in 0.5 ml saline) was infused into the femoral vein at the rate of 0.1 ml.min-1 for 5-min. After 1-min of insulin infusion, the first test glucose sample was determined and a variable glucose infusion (10%) was initiated. Blood samples were taken every 2-min and the glucose infusion rate was adjusted accordingly to maintain euglycemia. The RIST index is the amount of glucose (mg.kg-1) infused, to maintain euglycemia, over the test period that terminated when no further glucose infusion was required (approximately 30 min). At the end of a RIST, the animal is at its pretest glycemic level.
Animal groups. Six groups of animals were established under the following treatments: (1): Normal control rats, treated with saline and corn oil injection at the dose of 2 and 1 ml.kg-1, respectively, n=12. (2): Normal rats, treated with Vitamin C, Vitamin E and SAMe, n=8. The dose for Vitamin C and Vitamin E were 100 and 200 mg.kg-1, respectively; for SAMe was 25 mg.kg-1. […]

Male Sprague-Dawley rats [3] = test: Liver histopathological examination; conditions: TAA rats; for Bridging Necrosis / Necrosis: score 0-3; for Inflammation: score 0-3 (normal-0, mild-1, moderate-2, severe-3), mean of 5 fields
Protocol: Six groups of animals were established under the following treatments: (1): Normal control rats, treated with saline and corn oil injection at the dose of 2 and 1 ml.kg-1, respectively, n=12. (2): Normal rats, treated with Vitamin C, Vitamin E and SAMe, n=8. The dose for Vitamin C and Vitamin E were 100 and 200 mg.kg-1, respectively; for SAMe was 25 mg.kg-1. (3): Thioacetaminde (TAA) rats, given with intraperitoneal injection of TAA at the dose of 200 mg.kg-1, n=9. (4): TAA rats treated with Vitamin C+Vitamin E, n=11. (5): TAA rats with SAMe treatment, n=7. (6): TAA rats treated with Vitamin C+Vitamin E+SAMe, n=8. All compounds were administered by intraperitoneal injection (i. p.). TAA was administered 24 h before the start of surgery, and all treatment with vitamins and SAMe were given 1 h post TAA administration.
The left liver lobe was excised and embedded in paraffin, sliced 7 μm in thickness, and stained with hematoxylin-eosin. The tissue slices were then analyzed with light microscopy. Histopathological analysis of the injured area was performed with a computerized video-imaging system (Image-Pro Plus. Media Cybernetics, Md., USA) by a pathologist (Y.F.) who was not aware of sample assignment to experimental group. The degree of injury, including inflammation, necrosis and bridging necrosis, was expressed as the mean of 5 different fields for each slide scaled as 0-3: normal-0, mild-1, moderate-2 and severe-3.

Compound | Serum ALT and AST activities (Male Sprague-Dawley rats [1]) | RIST index (Male Sprague-Dawley rats [2]) [mg/kg] | RIST index post atropine (Male Sprague-Dawley rats [2]) [mg/kg] | histological injury of liver (Male Sprague-Dawley rats [3]) | Bridging Necrosis (Male Sprague-Dawley rats [3]) | Necrosis (Male Sprague-Dawley rats [3]) | Inflammation (Male Sprague-Dawley rats [3]) | inhibition at 0.1 mg/kg (Male Sprague-Dawley rats [2]; Rattus norvegicus, read-out: inhibition of insulin sensitivity) [%] | RIST index after atropine (Male Sprague-Dawley rats [2]; normal rats, atropine 0.1 mg.kg^−1) [mg/kg]
CC(=N)S [TAA, thioacetamide] | significant increase | 75.5 ± 2.8 | 69.0 ± 2.1 | massive hepatocytic necrosis | 1.17 ± 0.36 | 2.33 ± 0.17 | 1.50 ± 0.22 |  | 
C[S+](CC[C@H](N)C(=O)O)C[C@H]1O[C@@H](n2cnc3c(N)ncnc32)[C@H](O)[C@@H]1O (stereo partly shown) [SAMe, S-adenosylmethionine] | did not prevent | 88.0 ± 4.1 | 72.1 ± 3.5 | slight reduction in histological injury | 0.09 ± 0.09 | 1.79 ± 0.15 # | 0.93 ± 0.13 |  | 
CN1[C@@H]2CC[C@H]1C[C@@H](OC(=O)C(CO)c1ccccc1)C2 (stereo partly shown) [Atropine, atropine] |  |  |  |  |  |  |  | 50 ± 2.1 | 82.7 ± 3.2
